Laboratory results as given in publication PMC12299890 (Pharmaceuticals, 2025).

Assay: Serum concentration and pharmacokinetics of SCI after oral gavage in Wistar rats
Format: in vivo, Wistar rat
Method: All procedures were performed according to the Local Ethical Committee of Experiments on Animals guidelines in Olsztyn, Poland. The experiment was conducted in the same way as described by Antonowski et al.. Briefly, the experiment was performed on male Wistar rats (n = 6). Rats were maintained in ventilated rooms under a standard day photoperiod (12:12 h light–dark) as well as with lights on from 700 to 1900 h at 21 °C. All rats had free access to food and water. At 42 days of age, rats were randomized into experimental groups (Table 1 and Table 4).
Before the administration of cyclitol (10 mg/kg), the rats were fasting for 12 h (Table 1). […] Access to water was unlimited during the experiments. The study group (n = 6) was divided into two subgroups (n = 3 rats per subgroup). This practice allows for the use of only 6 rats for the entire experiment in accordance with the 3 Rs principle. Rats received the compound at a dose of 10 mg/kg body weight. Rats were weighed before starting the compound administration. Cyclitol was administered to the rats from the study group using a stainless-steel gastric tube with a ball tip (manufacturer—Agnthos, curved gastric tube, 16G, 3 mm tip, 75 mm). Cyclitol was dissolved in distilled water to a maximum volume of 1 mL. The prepared solution was administered to the animal.
Blood samples were collected into Eppendorf tubes and were centrifuged at 2500× g for 10 min at 8 °C the following day. Blood was harvested from the tail at a specific time. […] Serum was stored at −80 °C for subsequent analyses.
The analysis is described in detail by Antonowski and co-workers. Briefly, the first step was to remove the protein, then concentrate the sample in a speed vacuum evaporator to dryness. Next, samples were analyzed using the high-resolution gas chromatography method. We used a gas chromatograph GC2010Plus (Shimadzu, Tokyo, Japan) with a capillary column ZEBRON ZB-1 (15 m length, 0.25 mm diameter, and 0.1 μm film thickness, Phenomenex, Torrance, CA, USA). Helium was used as a carrier gas (at a flow rate of 1.18 mL min^−1). […] Finally, scyllo-inositol was quantified by using a standard.
The PK parameters were calculated using PK Solver. PKSolver is an add-in program for pharmacokinetic and pharmacodynamic data analysis […]. […] The area under the drug concentration–time curve from time zero to the time of the last quantifiable concentration (AUClast) was calculated using the trapezoidal rule. The volume over which the drug was distributed (Vd) and clearance (CL) were conducted by PK Solver. […] Nevertheless, we estimated K by log-linear regression analysis on data points on the terminal log-linear phase. Noncompartmental analysis is generally the preferred methodology to use in that it requires fewer assumptions than model-based approaches. We presented the results for individual rats, subgroups of rats, and for all subjects studied. The content of scyllo-inositol was calculated from the standard curves of appropriate components. To determine the terminal phase, […] was sufficient.
An analysis of all parameters was carried out with GraphPad Prism software (Version 10 Graph Pad Software Inc., La Jolla, CA, USA). Data are expressed as means ± SEM or individual data. Briefly, AUClast was calculated using the trapezoidal method. The T0.5 of oral administration was calculated as 0.693/K.

[1] = Mean of rats 1–3 ± SEM, serum, oral 10 mg/kg

CL [1]: 0.112 ± 0.008 (95%CI: 0.145–0.079) L/h
Vd [1]: 4.182 ± 2.287 (95%CI: 14.02–(−5.656)) L
CL (Mean of rats 4–6 ± SEM, serum, oral 10 mg/kg): 0.216 ± 0.055 (95%CI: 0.451–(−0.02)) L/h
CL (Rat No 1, serum, oral 10 mg/kg): 0.1 L/h
Vd (Rat No 1, serum, oral 10 mg/kg): 0.039 L
CL (Rat No 2, serum, oral 10 mg/kg): 0.11 L/h
Vd (Rat No 2, serum, oral 10 mg/kg): 7.93 L
CL (Rat No 3, serum, oral 10 mg/kg): 0.126 L/h
Vd (Rat No 3, serum, oral 10 mg/kg): 4.578 L
CL (Rat No 4, serum, oral 10 mg/kg): 0.325 L/h
Vd (Rat No 4, serum, oral 10 mg/kg): 0.358 L
CL (Rat No 5, serum, oral 10 mg/kg): 0.16 L/h
Vd (Rat No 5, serum, oral 10 mg/kg): 0.9967 L
CL (Rat No 6, serum, oral 10 mg/kg): 0.162 L/h
Vd (Rat No 6, serum, oral 10 mg/kg): 0.566 L
Concentration of SCI in serum (Rat No. 1, time 0 h, oral 10 mg/kg): BLQ
Concentration of SCI in serum (Rat No. 1, time 0.25 h, oral 10 mg/kg): BLQ
Concentration of SCI in serum (Rat No. 1, time 12 h, oral 10 mg/kg): BLQ
Concentration of SCI in serum (Rat No. 1, time 24 h, oral 10 mg/kg): BLQ
Concentration of SCI in serum (Rat No. 2, time 0 h, oral 10 mg/kg): BLQ
Concentration of SCI in serum (Rat No. 2, time 0.25 h, oral 10 mg/kg): BLQ
Concentration of SCI in serum (Rat No. 2, time 12 h, oral 10 mg/kg): BLQ
Concentration of SCI in serum (Rat No. 2, time 24 h, oral 10 mg/kg): BLQ
Concentration of SCI in serum (Rat No. 3, time 0 h, oral 10 mg/kg): BLQ
Concentration of SCI in serum (Rat No. 3, time 0.25 h, oral 10 mg/kg): BLQ
Concentration of SCI in serum (Rat No. 3, time 12 h, oral 10 mg/kg): BLQ
Concentration of SCI in serum (Rat No. 3, time 24 h, oral 10 mg/kg): BLQ
Concentration of SCI in serum (Rat No. 4, time 36 h, oral 10 mg/kg): BLQ
Concentration of SCI in serum (Rat No. 4, time 48 h, oral 10 mg/kg): BLQ
Concentration of SCI in serum (Rat No. 5, time 36 h, oral 10 mg/kg): BLQ
Concentration of SCI in serum (Rat No. 5, time 48 h, oral 10 mg/kg): BLQ
Concentration of SCI in serum (Rat No. 6, time 36 h, oral 10 mg/kg): BLQ
Concentration of SCI in serum (Rat No. 6, time 48 h, oral 10 mg/kg): BLQ
concentration at 0 min (male, Wistar, rat, serum, oral, 10 mg/kg, Mean concentration of SCI in serum, at the point of administration (0 min), rats 1–3): 0 ng/mL
concentration at 0.5 h (male, Wistar, rat, serum, po, 10 mg/kg, Concentration of SCI in serum, Rat No. 1, oral 10 mg/kg): 1000 ng/mL
concentration at 1 h (male, Wistar, rat, serum, po, 10 mg/kg, Concentration of SCI in serum, Rat No. 1, time 1 h, oral 10 mg/kg): 1600 ng/mL
concentration at 1.5 h (male, Wistar, rat, serum, po, 10 mg/kg, Concentration of SCI in serum, Rat No. 1, time 1.5 h, oral 10 mg/kg): 7200 ng/mL
concentration at 0.5 h (male, Wistar, rat, serum, po, 10 mg/kg, Concentration of SCI in serum, Rat No. 2, oral 10 mg/kg): 4600 ng/mL
concentration at 1 h (male, Wistar, rat, serum, po, 10 mg/kg, Concentration of SCI in serum, Rat No. 2, time 1 h, oral 10 mg/kg): 5600 ng/mL
concentration at 1.5 h (male, Wistar, rat, serum, po, 10 mg/kg, Concentration of SCI in serum, Rat No. 2, time 1.5 h, oral 10 mg/kg): 6200 ng/mL
concentration at 0.5 h (male, Wistar, rat, serum, po, 10 mg/kg, Concentration of SCI in serum, Rat No. 3, oral 10 mg/kg): 5600 ng/mL
concentration at 1 h (male, Wistar, rat, serum, po, 10 mg/kg, Concentration of SCI in serum, Rat No. 3, time 1 h, oral 10 mg/kg): 6800 ng/mL
concentration at 1.5 h (male, Wistar, rat, serum, po, 10 mg/kg, Concentration of SCI in serum, Rat No. 3, time 1.5 h, oral 10 mg/kg): 4400 ng/mL
concentration at 2 h (male, Wistar, rat, serum, po, 10 mg/kg, Concentration of SCI in serum, Rat No. 4, time 2 h, oral 10 mg/kg): 3200 ng/mL
concentration at 4 h (male, Wistar, rat, serum, po, 10 mg/kg, Concentration of SCI in serum, Rat No. 4, time 4 h, oral 10 mg/kg): 600 ng/mL
concentration at 8 h (male, Wistar, rat, serum, po, 10 mg/kg, Concentration of SCI in serum, Rat No. 4, time 8 h, oral 10 mg/kg): 400 ng/mL
concentration at 2 h (male, Wistar, rat, serum, po, 10 mg/kg, Concentration of SCI in serum, Rat No. 5, time 2 h, oral 10 mg/kg): 3800 ng/mL
concentration at 4 h (male, Wistar, rat, serum, po, 10 mg/kg, Concentration of SCI in serum, Rat No. 5, time 4 h, oral 10 mg/kg): 6100 ng/mL
concentration at 8 h (male, Wistar, rat, serum, po, 10 mg/kg, Concentration of SCI in serum, Rat No. 5, time 8 h, oral 10 mg/kg): 200 ng/mL
concentration at 2 h (male, Wistar, rat, serum, po, 10 mg/kg, Concentration of SCI in serum, Rat No. 6, time 2 h, oral 10 mg/kg): 5400 ng/mL
concentration at 4 h (male, Wistar, rat, serum, po, 10 mg/kg, Concentration of SCI in serum, Rat No. 6, time 4 h, oral 10 mg/kg): 3600 ng/mL
concentration at 8 h (male, Wistar, rat, serum, po, 10 mg/kg, Concentration of SCI in serum, Rat No. 6, time 8 h, oral 10 mg/kg): 400 ng/mL
concentration at 30 min (male, Wistar, rat, serum, po, 10 mg/kg, Mean concentration of SCI in serum, 30 min after oral 10 mg/kg, mean of rats 1–3): 3730 ng/mL
concentration at 1 h (male, Wistar, rat, serum, po, 10 mg/kg, Mean concentration of SCI in serum, 1 h after oral 10 mg/kg, mean of rats 1–3): 4670 ng/mL
concentration at 1.5 h (male, Wistar, rat, serum, po, 10 mg/kg, Mean concentration of SCI in serum, 1.5 h after oral 10 mg/kg, mean of rats 1–3): 5930 ng/mL
concentration at 2 h (male, Wistar, rat, serum, po, 10 mg/kg, Mean concentration of SCI in serum, 2 h after oral 10 mg/kg, mean of rats 4–6): 4130 ng/mL
concentration at 4 h (male, Wistar, rat, serum, po, 10 mg/kg, Mean concentration of SCI in serum, 4 h after oral 10 mg/kg, mean of rats 4–6): 3430 ng/mL
concentration at 8 h (male, Wistar, rat, serum, po, 10 mg/kg, Mean concentration of SCI in serum, 8 h after oral 10 mg/kg, mean of rats 4–6): 330 ng/mL
concentration at 12 h (male, Wistar, rat, serum, po, 10 mg/kg, Mean concentration of SCI in serum, 12 h after oral 10 mg/kg, rats 1–3): 0 ng/mL
SMILES: O[C@H]1[C@H](O)[C@@H](O)[C@H](O)[C@@H](O)[C@@H]1O [SCI, scyllo-inositol]
